In publication PMC3694885, “Activity of Bradykinin B2 Receptor Is Regulated by Long-Chain Polyunsaturated Fatty Acids” (PLoS ONE, 2013):

Target: T1, bradykinin B2 receptor (B2R) (Homo sapiens, UniProt P30411)
T1 construct: gene BDKRB2; B2R transfected in HEK293 cells
T1 sequence (P30411 1-391): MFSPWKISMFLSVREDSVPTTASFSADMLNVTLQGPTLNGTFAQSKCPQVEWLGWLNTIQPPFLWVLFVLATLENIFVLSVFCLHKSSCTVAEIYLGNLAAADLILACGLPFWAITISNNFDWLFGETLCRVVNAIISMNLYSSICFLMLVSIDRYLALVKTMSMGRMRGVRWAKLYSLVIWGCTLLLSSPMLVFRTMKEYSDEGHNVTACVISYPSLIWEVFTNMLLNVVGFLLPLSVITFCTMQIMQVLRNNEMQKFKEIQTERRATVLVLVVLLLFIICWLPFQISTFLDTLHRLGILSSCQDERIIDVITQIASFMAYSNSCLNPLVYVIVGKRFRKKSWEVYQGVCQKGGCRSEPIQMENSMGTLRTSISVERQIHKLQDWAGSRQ
Assay: B2R-dependent ERK phosphorylation in transfected HEK293, blocked by the B2R antagonist HOE-140
Type: cell-based

CC/C=C\C/C=C\C/C=C\C/C=C\C/C=C\C/C=C\CCC(=O)O [DHA, docosahexaenoic acid]
B2R-dependent ERK phosphorylation in transfected HEK293, blocked by the B2R anta: EPA or DHA dependent ERK phosphorylation was inhibited by the selective B2R antagonist.
